Data set [1] deals with panelists. The experiment in a line: Determination of the sucrose equivalence using a comparative series of sucrose concentrations in water. To be noted: concentration used in preparation C (1 ppm), method of Application example 1, first part. The class given is in vivo, human. From the text: The sucrose equivalence ratio of the sucrose equivalence of the concentration of the substances or substance of group (i) to the sucrose equivalence of the concentration of the substance or substances of group (ii) in the corresponding flavoring mixture (and in other mixtures, cf. further below), is established as follows: • 1. A comparative series of different sucrose concentrations in water is produced. Preferred concentrations are 0; 0.25; 0.5; 0.75; 1; 1.5; 2; 3; 4 and 5% by weight sucrose in water. Other concentrations, in particular higher concentrations, can optionally also be used for the comparative series. • 2. […] The determined sucrose equivalence is produced from the average of individual gradings by the individual panelists. • 6. The dilution ratio is then determined, using which solution 1 can be set at a sucrose equivalence of 2% by weight sucrose in water. […] It is of course sensible to have the determined dilution ratio tested once more by the panelists. • 7. Solution 2 (containing the compound(s) of group (ii)) is then diluted in the dilution ratio determined under 6. • 8. Subsequently, the dilute solution 2 is also tasted and compared to the sucrose test series, graded by the panelists and a corresponding sucrose equivalence value is determined (analogously to points 4. and 5.). • 9. […]

The nature of data set [2]: Stability of phyllodulcin content under elevated thermal stress (HPLC, UV detection). The class given is physicochemical. To be noted: 100 mg/l phyllodulcin in aqueous phosphate buffer pH 9, stored at 40° C., compared to the same quantity as extract. As for the experimental part: The exemplary extract was tested for stability under an elevated thermal stress in comparison to pure phyllodulcin. A solution of 100 mg/l of phyllodulcin and 1.38% of the exemplary ethanolic extract (corresponds to 100 mg of phyllodulcin) in an aqueous phosphate buffer, adjusted to pH 9, was tested immediately after preparation and then at regular weekly intervals for its phyllodulcin content. In this respect, an aliquot of the respective test solution was separated in an HPLC installation (RP phase) and quantified by UV detection compared to a calibration with pure phyllodulcin. The samples were stored at 40° C. in closed glass vessels to prevent evaporation. The phyllodulcin contents of the test solutions are plotted against time in FIG. 1.

For the compound `COc1ccc(CCC(=O)c2c(O)cc(O[C@@H]3O[C@H](CO)[C@@H](O)[C@H](O)[C@H]3O[C@@H]3O[C@@H](C)[C@H](O)[C@@H](O)[C@H]3O)cc2O)cc1O` [neohesperidin dihydrochalcone], the “sucrose equivalence alone in water” value in data set [1] is listed as “approximately 0.5%”. In the case of `COc1ccc([C@H]2Cc3cccc(O)c3C(=O)O2)cc1O` [phyllodulcin], the “Decomposition of phyllodulcin over time (FIG. 1)” value in data set [2] is given as “decomposed more rapidly”.

Values taken from patent US10869493B2, “Reduced-sweetener products, flavoring mixtures for said reduced-sweetener products and process for the production of products of this type” (SYMRISE AG, priority 2009, dated 2020).
